Measurements: patent publication US5135847A, “Substrate composition for alkaline phosphatase and method for assay using same” (Becton, Dickinson and Company, priority 1988, dated 1992)

Experiments:
[1] = test system: AP from several mammalian tissue types; settings: cited from earlier work
[2] = pH 7.9 versus pH 2; cited from earlier work
AP from the intestine = settings: intestinal versus nonintestinal AP; cited from earlier work
[3] = test system: bovine liver alkaline phosphatase; assay: Accelerated stability in various pH 9.8 buffers at 45° C.; functional inhibitor measured by inhibition of bovine liver alkaline phosphatase; type: physicochemical; settings: for Percent of Functional Levamisole Remaining: 45° C., Day 0
Procedure: Various buffers were prepared at 100 mM concentrations, containing 1 mM magnesium chloride, and adjusted to pH 9.8. […] (accelerated decomposition study). […] Bovine liver AP was added and the reaction kinetics were followed at 405 nm.

[4] = test system: bovine liver alkaline phosphatase; assay: Potency as alkaline phosphatase inhibitor relative to levamisole; type: biochemical

more potent than levamisole [4] | Percent of Functional Levamisole Remaining ([3]; AMP buffer, pH 9.8, 0.1 mM p-bromolevamisole) [%] | Percent of Functional Levamisole Remaining ([3]; AMPD buffer, pH 9.8, 0.1 mM p-bromolevamisole) [%] | Percent of Functional Levamisole Remaining ([3]; Carbonate buffer, pH 9.8, 0.1 mM p-bromolevamisole) [%] | Percent of Functional Levamisole Remaining ([3]; Diethanolamine buffer, pH 9.8, 0.1 mM p-bromolevamisole) [%] | Percent of Functional Levamisole Remaining ([3]; Glycine buffer, pH 9.8, 0.1 mM p-bromolevamisole) [%] | Percent of Functional Levamisole Remaining ([3]; Triethanolamine buffer, pH 9.8, 0.1 mM p-bromolevamisole) [%] | decomposition compared with the parent compound (levamisole) ([3]; pH 9.8, 45° C.) | Structure (SMILES) | inhibition of AP from several mammalian tissue types [1] | decomposed faster at pH 7.9 than at pH 2 [2] [times] | less potent toward AP from the intestine than toward AP from several mammalian tissue types (AP from the intestine) | Percent of Functional Levamisole Remaining ([3]; AMP buffer 100 mM, 1 mM magnesium chloride, pH 9.8, 1 mM levamisole) [%] | Percent of Functional Levamisole Remaining ([3]; AMPD buffer 100 mM, 1 mM magnesium chloride, pH 9.8, 1 mM levamisole) [%] | Percent of Functional Levamisole Remaining ([3]; Carbonate buffer 100 mM, 1 mM magnesium chloride, pH 9.8, 1 mM levamisole) [%] | Percent of Functional Levamisole Remaining ([3]; Diethanolamine buffer 100 mM, 1 mM magnesium chloride, pH 9.8, 1 mM levamisole) [%] | Percent of Functional Levamisole Remaining ([3]; Glycine buffer 100 mM, 1 mM magnesium chloride, pH 9.8, 1 mM levamisole) [%] | Percent of Functional Levamisole Remaining ([3]; Triethanolamine buffer 100 mM, 1 mM magnesium chloride, pH 9.8, 1 mM levamisole) [%] | stability in AMPD and particularly in AMP compared with other buffers ([3]; pH 9.8, 45° C.)
 |  |  |  |  |  |  |  | c1ccc([C@H]2CN3CCSC3=N2)cc1 [levamisole, (-)2,3,5,6-tetrahydro-6-phenylimidazo[1,2-b]thiazole] | potent inhibitor | 70 | approximately 100 fold | 100 | 100 | 100 | 100 | 100 | 100 | substantially greater
approximately 10 fold | 100 | 100 | 100 | 100 | 100 | 100 | quite a bit faster | Brc1ccc([C@H]2CN3CCSC3=N2)cc1 [p-bromolevamisole] |  |  |  |  |  |  |  |  |  | 
